Measured values reported in patent US11267822B2, “BET bromodomain protein degraders with cleavable linkers” (THE REGENTS OF THE UNIVERSITY OF MICHIGAN, priority 2017, dated 2022).
Several values for one entry are separate records, joined by “and”; a condition that tells them apart may be missing. Identical values can stand only once. Each block holds one molecule with its values, some of them ahead of it.

Columns and labels:
[1] = system: BET protein; assay: Pharmacodynamic effect in RS4;11 tumor tissue in mice (BET protein degradation); type: in vivo; conditions: RS4;11 tumor-bearing mice, intravenous dosing at 10 mg/kg
Text: FIG. 1 is an illustration showing the pharmacodynamic effect of Cpd. No. 15 in RS4;11 tumor tissue in mice.
FIG. 2 is an illustration showing the pharmacodynamic effect of Cpd. No. 16 in RS4;11 tumor tissue in mice.
The pharmacodynamic effect of Cpd. No. 15 and Cpd.

[2] = Pharmacokinetics in RS4;11 tumor-bearing mice (plasma and tumor concentrations); type: in vivo; conditions: for Cpd. No. 15 Concentration in plasma: IV 10 mg/kg Cpd. No. 15, RS4;11 tumor-bearing mice
Text: The pharmacokinetics of Cpd. No. 15 in RS4;11 tumor-bearing mice show it is converted to Cpd. No. 52 in plasma and tumor tissue. BLOQ=below limit of detection; nd=not determined

[3] = system: MDA-MB-231; assay: Cell growth inhibition, CellTiter-Glo Luminescent Cell Viability Assay, MDA-MB-231; type: cell-based; conditions: MDA-MB-231 cells, 4 days
Experimental: (§1) Cell growth inhibitory activity of representative Compounds of the Disclosure was determined using the CellTiter-Glo® Luminescent Cell Viability Assay. Cells were seeded in 384-well white opaque cell culture plates at a density of 2,000 cells/well with serially diluted compounds and incubated at 37° C. in an atmosphere of 95% air and 5% CO2 for 4 days. Cell viability was determined using the CellTiter-Glo® Luminescent Cell Viability Assay Kit (Promega, Madison, Wis.) according to the manufacture's instruction. Briefly, a volume of CellTiter-Glo® Reagent equal to the volume of cell culture medium was added to each well, and then the plates were incubated at room temperature for 10-20 minutes. The luminescent signal was measured using a Tecan Infinite M1000 multimode microplate reader (Tecan, Morrisville, N.C.). The half maximal inhibitory concentration (IC50) in Table 3 was calculated using the GraphPad Prism 5 software (GraphPad Software, La Jolla, Calif.).

[4] = system: MOLM13; assay: Cell growth inhibition, CellTiter-Glo Luminescent Cell Viability Assay, MOLM13; type: cell-based; conditions: MOLM13 cells, 4 days
Experimental: as §1

Cpd. No. 15 Concentration in tumor ([2]; IV 10 mg/kg Cpd. No. 15, 1 h, Mouse 1 L tumor): BLOQ
Cpd. No. 15 Concentration in tumor ([2]; IV 10 mg/kg Cpd. No. 15, 1 h, Mouse 1 R tumor): BLOQ
Cpd. No. 15 Concentration in tumor ([2]; IV 10 mg/kg Cpd. No. 15, 1 h, Mouse 2 L tumor): BLOQ
Cpd. No. 15 Concentration in tumor ([2]; IV 10 mg/kg Cpd. No. 15, 1 h, Mouse 2 R tumor): BLOQ
Cpd. No. 15 Concentration in tumor ([2]; IV 10 mg/kg Cpd. No. 15, 3 h, Mouse 1 L tumor): BLOQ
Cpd. No. 15 Concentration in tumor ([2]; IV 10 mg/kg Cpd. No. 15, 3 h, Mouse 1 R tumor): BLOQ
Cpd. No. 15 Concentration in tumor ([2]; IV 10 mg/kg Cpd. No. 15, 3 h, Mouse 2 L tumor): BLOQ
Cpd. No. 15 Concentration in tumor ([2]; IV 10 mg/kg Cpd. No. 15, 3 h, Mouse 2 R tumor): BLOQ
Cpd. No. 15 Concentration in plasma ([2]; 1 h, mouse 1): BLOQ
Cpd. No. 15 Concentration in plasma ([2]; 1 h, mouse 2): BLOQ
Cpd. No. 15 Concentration in plasma ([2]; 3 h, mouse 1): BLOQ
Cpd. No. 15 Concentration in plasma ([2]; 3 h, mouse 2): BLOQ
SMILES: Cc1nnc2n1-c1sc(C#Cc3cnn(CCCC(=O)OCCCOc4cccc5c4CN(C4CCC(=O)NC4=O)C5=O)c3)c(Cc3ccccc3)c1COC2 (stereo not drawn) [Cpd. No. 15, 3-((2-(2,6-dioxopiperidin-3-yl)-1-oxoisoindolin-4-yl)oxy)propyl 4-(4-((3-benzyl-9-methyl-4H,6H-thieno[2,3-e][1,2,4]triazolo[3,4-c][1,4]oxazepin-2-yl)ethynyl)-1H-pyrazol-1-yl)butanoate]
Pharmacodynamic effect: BET protein degradation in tumor tissue [1]: induce BET protein degradation in tumor tissue
Conversion (metabolism) in plasma and tumor tissue ([2]; RS4;11 tumor-bearing mice, IV 10 mg/kg): converted to Cpd. No. 52 in plasma and tumor tissue

IC50 ([3]; Homo sapiens, MDA-MB-231, 96 h): 1.5 nM
IC50 [3]: 0.9 nM
IC50 ([4]; Homo sapiens, MOLM-13, 96 h): 0.4 nM
IC50 [4]: 0.2 nM
SMILES: Cc1nnc2n1-c1sc(C#Cc3cnn(CCCC(=O)OCCC#Cc4cccc5c4CN(C4CCC(=O)NC4=O)C5=O)c3)c(Cc3ccccc3)c1COC2 (stereo not drawn) [Cpd. No. 16, 4-(2-(2,6-dioxopiperidin-3-yl)-1-oxoisoindolin-4-yl)but-3-yn-1-yl 4-(4-((3-benzyl-9-methyl-4H,6H-thieno[2,3-e][1,2,4]triazolo[3,4-c][1,4]oxazepin-2-yl)ethynyl)-1H-pyrazol-1-yl)butanoate]
Pharmacodynamic effect: BET protein degradation in tumor tissue [1]: induce BET protein degradation in tumor tissue

IC50 ([3]; Homo sapiens, MDA-MB-231, 96 h): 148 nM
IC50 ([4]; Homo sapiens, MOLM-13, 96 h): 0.6 nM
SMILES: Cc1nnc2n1-c1sc(C#Cc3ccn(CCC(=O)OCCCNc4cccc5c4CN(C4CCC(=O)NC4=O)C5=O)n3)c(Cc3ccccc3)c1COC2 (stereo not drawn) [compound 30, 3-((2-(2,6-dioxopiperidin-3-yl)-1-oxoisoindolin-4-yl)amino)propyl 3-(3-((3-benzyl-9-methyl-4H,6H-thieno[2,3-e][1,2,4]triazolo[3,4-c][1,4]oxazepin-2-yl)ethynyl)-1H-pyrazol-1-yl)propanoate]

IC50 [3]: 9.1 nM and 5.6 nM
IC50 ([4]; Homo sapiens, MOLM-13, 96 h): 1.3 nM
SMILES: Cc1nnc2n1-c1sc(C#Cc3cnn(CCOC(=O)CCC#Cc4cccc5c4CN(C4CCC(=O)NC4=O)C5=O)c3)c(Cc3ccccc3)c1COC2 (stereo not drawn) [compound 31, 2-(4-((3-benzyl-9-methyl-4H,6H-thieno[2,3-e][1,2,4]triazolo[3,4-c][1,4]oxazepin-2-yl)ethynyl)-1H-pyrazol-1-yl)ethyl 5-(2-(2,6-dioxopiperidin-3-yl)-1-oxoisoindolin-4-yl)pent-4-ynoate]

IC50 ([3]; Homo sapiens, MDA-MB-231, 96 h): 25.8 nM
IC50 ([4]; Homo sapiens, MOLM-13, 96 h): 0.6 nM
SMILES: Cc1nnc2n1-c1sc(C#Cc3cnn(CCOC(=O)CCCCc4cccc5c4CN(C4CCC(=O)NC4=O)C5=O)c3)c(Cc3ccccc3)c1COC2 (stereo not drawn) [compound 32, 2-(4-((3-benzyl-9-methyl-4H,6H-thieno[2,3-e][1,2,4]triazolo[3,4-c][1,4]oxazepin-2-yl)ethynyl)-1H-pyrazol-1-yl)ethyl 5-(2-(2,6-dioxopiperidin-3-yl)-1-oxoisoindolin-4-yl)pentanoate]

IC50 [3]: 35.6 nM
IC50 [4]: 1.6 nM
SMILES: Cc1nnc2n1-c1sc(C#Cc3cnn(CCOC(=O)CCC#Cc4cccc5c4CN(C4CCC(=O)NC4=O)C5=O)c3)c(Cc3ccccc3)c1COC2 (stereo not drawn) [compound 33, 2-(4-((3-benzyl-9-methyl-4H,6H-thieno[2,3-e][1,2,4]triazolo[3,4-c][1,4]oxazepin-2-yl)ethynyl)-1H-pyrazol-1-yl)ethyl 5-(2-(2,6-dioxopiperidin-3-yl)-1-oxoisoindolin-4-yl)pent-4-ynoate]

IC50 ([3]; Homo sapiens, MDA-MB-231, 96 h): 8.4 nM
IC50 ([4]; Homo sapiens, MOLM-13, 96 h): 0.7 nM
SMILES: Cc1nnc2n1-c1sc(C#Cc3cnn(CC(=O)OCCCCc4cccc5c4CN(C4CCC(=O)NC4=O)C5=O)c3)c(Cc3ccccc3)c1COC2 (stereo not drawn) [compound 34, 4-(2-(2,6-dioxopiperidin-3-yl)-1-oxoisoindolin-4-yl)butyl 2-(4-((3-benzyl-9-methyl-4H,6H-thieno[2,3-e][1,2,4]triazolo[3,4-c][1,4]oxazepin-2-yl)ethynyl)-1H-pyrazol-1-yl)acetate]

IC50 ([3]; Homo sapiens, MDA-MB-231, 96 h): > 100 nM
IC50 ([4]; Homo sapiens, MOLM-13, 96 h): 22 nM
SMILES: Cc1nnc2n1-c1sc(C#Cc3cnn(CC(=O)OCCCc4cccc5c4CN(C4CCC(=O)NC4=O)C5=O)c3)c(Cc3ccccc3)c1COC2 (stereo not drawn) [compound 38, 3-(2-(2,6-dioxopiperidin-3-yl)-1-oxoisoindolin-4-yl)propyl 2-(4-((3-benzyl-9-methyl-4H,6H-thieno[2,3-e][1,2,4]triazolo[3,4-c][1,4]oxazepin-2-yl)ethynyl)-1H-pyrazol-1-yl)acetate]

IC50 ([3]; Homo sapiens, MDA-MB-231, 96 h): 1.2 nM
IC50 ([4]; Homo sapiens, MOLM-13, 96 h): 3.8 nM
SMILES: Cc1nnc2n1-c1sc(C#Cc3cnn(CCCC(=O)OCC#Cc4cccc5c4CN(C4CCC(=O)NC4=O)C5=O)c3)c(Cc3ccccc3)c1COC2 (stereo not drawn) [compound 41, 3-(2-(2,6-dioxopiperidin-3-yl)-1-oxoisoindolin-4-yl)prop-2-yn-1-yl 4-(4-((3-benzyl-9-methyl-4H,6H-thieno[2,3-e][1,2,4]triazolo[3,4-c][1,4]oxazepin-2-yl)ethynyl)-1H-pyrazol-1-yl)butanoate]

IC50 ([3]; Homo sapiens, MDA-MB-231, 96 h): 4.9 nM
IC50 ([4]; Homo sapiens, MOLM-13, 96 h): 5.5 nM
SMILES: Cc1nnc2n1-c1sc(C#Cc3ccc(CCCC(=O)OCCN4CCC(Nc5cccc6c5CN(C5CCC(=O)NC5=O)C6=O)CC4)nc3)c(Cc3ccccc3)c1COC2 (stereo not drawn) [compound 42, 2-(4-((2-(2,6-dioxopiperidin-3-yl)-1-oxoisoindolin-4-yl)amino)piperidin-1-yl)ethyl 4-(5-((3-benzyl-9-methyl-4H,6H-thieno[2,3-e][1,2,4]triazolo[3,4-c][1,4]oxazepin-2-yl)ethynyl)pyridin-2-yl)butanoate]

IC50 ([3]; Homo sapiens, MDA-MB-231, 96 h): > 100 nM
IC50 ([4]; Homo sapiens, MOLM-13, 96 h): > 100 nM
SMILES: Cc1nnc2n1-c1sc(C#Cc3ccc(CCCC(=O)OCCN4CCN(c5cccc6c5C(=O)N(C5CCC(=O)NC5=O)C6=O)CC4)nc3)c(Cc3ccccc3)c1COC2 (stereo not drawn) [compound 43, 2-(4-(2-(2,6-dioxopiperidin-3-yl)-1,3-dioxoisoindolin-4-yl)piperazin-1-yl)ethyl 4-(5-((3-benzyl-9-methyl-4H,6H-thieno[2,3-e][1,2,4]triazolo[3,4-c][1,4]oxazepin-2-yl)ethynyl)pyridin-2-yl)butanoate]

IC50 ([3]; Homo sapiens, MDA-MB-231, 96 h): > 100 nM
IC50 ([4]; Homo sapiens, MOLM-13, 96 h): 4.3 nM
SMILES: Cc1nnc2n1-c1sc(C#Cc3cnn(CCCC(=O)OCCN4CCN(c5cccc6c5C(=O)N(C5CCC(=O)NC5=O)C6=O)CC4)c3)c(Cc3ccccc3)c1COC2 (stereo not drawn) [compound 44, 2-(4-(2-(2,6-dioxopiperidin-3-yl)-1,3-dioxoisoindolin-4-yl)piperazin-1-yl)ethyl 4-(4-((3-benzyl-9-methyl-4H,6H-thieno[2,3-e][1,2,4]triazolo[3,4-c][1,4]oxazepin-2-yl)ethynyl)-1H-pyrazol-1-yl)butanoate]
